US9757375B2, “Compounds that inhibit human DNA ligases and methods of treating cancer” (University of Maryland, Baltimore, priority 2007, dated 2017)
Entries after “also recorded” stand apart in the source; their conditions may differ.

Target: T1, hLigI (Homo sapiens, UniProt P18858)
T1 construct: made in house
Test: High-throughput fluorescence-based DNA joining (ligation) assay
Assay type: biochemical
Conditions: 100 uM; read-out: % activity Inhibition hLigI 100 uM
In short: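 Nicked DNA substrate (10 pmol) was incubated with 0.25 pmol hLigI, with or without 100 μmol/L test compound, in duplicate. Afterwards the DNA was denatured and renatured with a 20-fold excess of unmodified oligonucleotide. Ligation forms an AF488/BHQ1 hairpin, read as reduced fluorescence at 518 nm.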

T1 sequence (P18858 whole entry): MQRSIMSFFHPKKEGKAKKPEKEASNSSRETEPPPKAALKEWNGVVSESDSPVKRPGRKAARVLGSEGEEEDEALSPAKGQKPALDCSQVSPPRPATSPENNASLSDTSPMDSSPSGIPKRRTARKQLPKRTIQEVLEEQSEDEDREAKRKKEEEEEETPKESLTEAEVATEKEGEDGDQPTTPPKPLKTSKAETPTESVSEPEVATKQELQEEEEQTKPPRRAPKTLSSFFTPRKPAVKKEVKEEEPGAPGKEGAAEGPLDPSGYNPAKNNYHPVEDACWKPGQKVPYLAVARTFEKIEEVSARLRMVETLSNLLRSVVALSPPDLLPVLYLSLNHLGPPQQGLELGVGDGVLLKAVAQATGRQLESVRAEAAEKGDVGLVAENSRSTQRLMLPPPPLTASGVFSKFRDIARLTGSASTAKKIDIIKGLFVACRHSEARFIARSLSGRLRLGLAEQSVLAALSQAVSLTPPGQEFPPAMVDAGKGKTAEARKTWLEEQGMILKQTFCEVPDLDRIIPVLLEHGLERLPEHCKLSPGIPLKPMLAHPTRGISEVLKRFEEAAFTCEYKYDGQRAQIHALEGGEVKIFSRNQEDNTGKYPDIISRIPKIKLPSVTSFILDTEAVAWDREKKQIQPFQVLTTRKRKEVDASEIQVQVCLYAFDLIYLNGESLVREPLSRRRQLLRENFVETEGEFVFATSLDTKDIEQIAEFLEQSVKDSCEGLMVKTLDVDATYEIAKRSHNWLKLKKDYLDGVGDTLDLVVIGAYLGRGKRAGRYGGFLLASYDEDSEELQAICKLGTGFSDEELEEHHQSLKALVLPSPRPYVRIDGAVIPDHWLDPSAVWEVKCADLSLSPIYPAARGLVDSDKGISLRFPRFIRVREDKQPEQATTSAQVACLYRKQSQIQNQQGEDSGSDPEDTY

SMILES	inhibition at 100 µM
CCCCC(=O)c1ccc(O)cc1O [Compound 213]	36.4 ± 8.6%
Cc1oc(C(=O)O)cc1CSCc1cc(C(=O)O)c(C)o1 [Compound 197]	91 ± 6.9%
O=C(O)CSc1cc(Cl)c2nonc2c1[N+](=O)[O-] [Compound 64]	60.6 ± 0.54%
C/C(O)=C1/C(=O)N(c2nc3ccccc3s2)N=C1c1ccccc1 [Compound 43]	29.2 ± 3.5%
Cc1c(Br)cc(NCC(=O)N/N=C\c2cc([N+](=O)[O-])ccc2O)cc1Br [Compound 67]	78.3 ± 8.5%

Same assay, conditions: 100 μM; read-out: % of inhibition @ 100 μM (Helen's data) hLigI

SMILES	inhibition at 100 µM
Cc1oc(C(=O)O)cc1CSCc1cc(C(=O)O)c(C)o1 [Compound 197]	91%
O=C(O)CSc1cc(Cl)c2nonc2c1[N+](=O)[O-] [Compound 64]	61%
Cc1c(Br)cc(NCC(=O)N/N=C\c2cc([N+](=O)[O-])ccc2O)cc1Br [Compound 67]	78%

Same assay, conditions: 100 μM; read-out: In vitro % inhib hLigI 100

SMILES	inhibition at 100 µM
CCCCC(=O)c1ccc(O)cc1O [Compound 213]	36 ± 9%
Cc1oc(C(=O)O)cc1CSCc1cc(C(=O)O)c(C)o1 [Compound 197]	91 ± 7%
O=C(O)CSc1cc(Cl)c2nonc2c1[N+](=O)[O-] [Compound 64]	61 ± 1%
C/C(O)=C1/C(=O)N(c2nc3ccccc3s2)N=C1c1ccccc1 [Compound 43]	29 ± 4%
Cc1c(Br)cc(NCC(=O)N/N=C\c2cc([N+](=O)[O-])ccc2O)cc1Br [Compound 67]	78 ± 8%

Same assay, conditions: in vitro screen, 100 μmol/L; the 15 hLigI inhibitors inhibited by >50%

SMILES	inhibition of hLigI (DNA ligase I), in words
CCCCC(=O)c1ccc(O)cc1O [Compound 213]	specifically inhibit DNA ligases I and III
O=C1Nc2ccccc2Oc2cc([N+](=O)[O-])cc([N+](=O)[O-])c21 [Compound 180]	inhibited hLigI
Cc1oc(C(=O)O)cc1CSCc1cc(C(=O)O)c(C)o1 [Compound 197]	inhibited hLigI; also recorded: inhibit all three human DNA ligases
O=C(O)CSc1cc(Cl)c2nonc2c1[N+](=O)[O-] [Compound 64]	inhibited hLigI; also recorded: inhibit all three human DNA ligases
C/C(O)=C1/C(=O)N(c2nc3ccccc3s2)N=C1c1ccccc1 [Compound 43]	specific for DNA ligase I
Cc1c(Br)cc(NCC(=O)N/N=C\c2cc([N+](=O)[O-])ccc2O)cc1Br [Compound 67]	inhibited hLigI; also recorded: inhibit hLigI but not T4 DNA ligase; also recorded: specifically inhibit DNA ligases I and III; also recorded: inhibit DNA ligase 1; also recorded: inhibits both hLigI and hLigIII

Same assay, conditions: read-out: % of inhibition @ 100 μM (Helen's data) hLigI

SMILES	inhibition at 100 µM
O=C1Nc2ccccc2Oc2cc([N+](=O)[O-])cc([N+](=O)[O-])c21 [Compound 180]	58%

Target: T2, human DNA ligase III (Homo sapiens, UniProt P49916)
T2 sequence (P49916 1-862 isoform P49916-4): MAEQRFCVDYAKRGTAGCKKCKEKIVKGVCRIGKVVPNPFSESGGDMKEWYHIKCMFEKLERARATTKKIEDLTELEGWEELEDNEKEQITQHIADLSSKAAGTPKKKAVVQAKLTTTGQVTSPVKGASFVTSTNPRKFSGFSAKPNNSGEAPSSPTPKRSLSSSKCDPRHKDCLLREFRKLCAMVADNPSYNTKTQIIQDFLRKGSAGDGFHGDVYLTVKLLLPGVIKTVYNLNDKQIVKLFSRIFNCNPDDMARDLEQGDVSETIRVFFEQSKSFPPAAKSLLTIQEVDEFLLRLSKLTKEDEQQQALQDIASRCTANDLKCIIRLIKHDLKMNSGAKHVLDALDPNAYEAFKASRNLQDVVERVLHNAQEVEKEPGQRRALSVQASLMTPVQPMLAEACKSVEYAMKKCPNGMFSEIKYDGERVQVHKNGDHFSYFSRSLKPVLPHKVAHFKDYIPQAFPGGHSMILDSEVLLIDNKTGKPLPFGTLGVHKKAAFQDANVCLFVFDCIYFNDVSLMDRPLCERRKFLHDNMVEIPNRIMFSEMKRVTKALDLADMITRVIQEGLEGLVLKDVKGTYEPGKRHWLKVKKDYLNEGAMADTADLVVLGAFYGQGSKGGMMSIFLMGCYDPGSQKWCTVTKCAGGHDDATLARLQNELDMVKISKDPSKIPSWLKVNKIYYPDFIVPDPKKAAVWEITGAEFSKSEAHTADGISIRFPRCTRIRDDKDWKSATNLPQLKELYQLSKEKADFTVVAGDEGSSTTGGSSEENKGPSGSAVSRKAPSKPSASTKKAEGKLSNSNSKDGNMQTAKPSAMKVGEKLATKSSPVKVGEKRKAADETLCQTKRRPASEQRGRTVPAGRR
Test: as above
Assay type: biochemical
Conditions: 100 μM; read-out: In vitro % inhib hLigIII 100
In short: (§1)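 Ligation joins an AF488-labelled and a BHQ1-labelled oligonucleotide. After denaturation and renaturation with a 20-fold excess of unlabelled competitor strand, the product forms a quenched hairpin, so joining is read as loss of 518 nm fluorescence. Ligase III used a nicked duplex; ligase IV used two duplexes with short complementary single-strand ends.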

SMILES	inhibition at 100 µM
CCCCC(=O)c1ccc(O)cc1O [Compound 213]	25 ± 1%
Cc1oc(C(=O)O)cc1CSCc1cc(C(=O)O)c(C)o1 [Compound 197]	96 ± 4%
O=C(O)CSc1cc(Cl)c2nonc2c1[N+](=O)[O-] [Compound 64]	49 ± 1%
C/C(O)=C1/C(=O)N(c2nc3ccccc3s2)N=C1c1ccccc1 [Compound 43]	0%
Cc1c(Br)cc(NCC(=O)N/N=C\c2cc([N+](=O)[O-])ccc2O)cc1Br [Compound 67]	88 ± 12%

Same assay, conditions: 100 uM; Ø not defined (0 in Table 5A)

SMILES	% activity Inhibition hLigIII 100 uM
C/C(O)=C1/C(=O)N(c2nc3ccccc3s2)N=C1c1ccccc1 [Compound 43]	Ø

Same assay, conditions: 100 uM; Ø not defined (0 in Table 5A); read-out: % activity Inhibition hLigIII 100 uM

SMILES	inhibition at 100 µM
CCCCC(=O)c1ccc(O)cc1O [Compound 213]	25.2 ± 0.46%
Cc1oc(C(=O)O)cc1CSCc1cc(C(=O)O)c(C)o1 [Compound 197]	96.5 ± 3.5%
O=C(O)CSc1cc(Cl)c2nonc2c1[N+](=O)[O-] [Compound 64]	48.5 ± 0.1%
Cc1c(Br)cc(NCC(=O)N/N=C\c2cc([N+](=O)[O-])ccc2O)cc1Br [Compound 67]	88.2 ± 11.6%

Same assay, conditions: in vitro screen

SMILES	inhibition of human DNA ligase III, in words
CCCCC(=O)c1ccc(O)cc1O [Compound 213]	specifically inhibit DNA ligases I and III
Cc1oc(C(=O)O)cc1CSCc1cc(C(=O)O)c(C)o1 [Compound 197]	inhibit all three human DNA ligases
O=C(O)CSc1cc(Cl)c2nonc2c1[N+](=O)[O-] [Compound 64]	inhibit all three human DNA ligases
Cc1c(Br)cc(NCC(=O)N/N=C\c2cc([N+](=O)[O-])ccc2O)cc1Br [Compound 67]	specifically inhibit DNA ligases I and III; also recorded: inhibits DNA ligase III; also recorded: inhibits both hLigI and hLigIII

Same assay, conditions: read-out: % of inhibition @ 100 μM (Helen's data) hLigIII

SMILES	inhibition at 100 µM
O=C1Nc2ccccc2Oc2cc([N+](=O)[O-])cc([N+](=O)[O-])c21 [Compound 180]	> 40%
Cc1oc(C(=O)O)cc1CSCc1cc(C(=O)O)c(C)o1 [Compound 197]	97%
O=C(O)CSc1cc(Cl)c2nonc2c1[N+](=O)[O-] [Compound 64]	49%
Cc1c(Br)cc(NCC(=O)N/N=C\c2cc([N+](=O)[O-])ccc2O)cc1Br [Compound 67]	88%

Target: human DNA ligase IV (Homo sapiens, UniProt P49917)
Test: as above
Assay type: biochemical
Conditions: 100 μM; read-out: % of inhibition @ 100 μM (Helen's data) hLigIV
In short: as §1

human DNA ligase IV, sequence (P49917 whole entry): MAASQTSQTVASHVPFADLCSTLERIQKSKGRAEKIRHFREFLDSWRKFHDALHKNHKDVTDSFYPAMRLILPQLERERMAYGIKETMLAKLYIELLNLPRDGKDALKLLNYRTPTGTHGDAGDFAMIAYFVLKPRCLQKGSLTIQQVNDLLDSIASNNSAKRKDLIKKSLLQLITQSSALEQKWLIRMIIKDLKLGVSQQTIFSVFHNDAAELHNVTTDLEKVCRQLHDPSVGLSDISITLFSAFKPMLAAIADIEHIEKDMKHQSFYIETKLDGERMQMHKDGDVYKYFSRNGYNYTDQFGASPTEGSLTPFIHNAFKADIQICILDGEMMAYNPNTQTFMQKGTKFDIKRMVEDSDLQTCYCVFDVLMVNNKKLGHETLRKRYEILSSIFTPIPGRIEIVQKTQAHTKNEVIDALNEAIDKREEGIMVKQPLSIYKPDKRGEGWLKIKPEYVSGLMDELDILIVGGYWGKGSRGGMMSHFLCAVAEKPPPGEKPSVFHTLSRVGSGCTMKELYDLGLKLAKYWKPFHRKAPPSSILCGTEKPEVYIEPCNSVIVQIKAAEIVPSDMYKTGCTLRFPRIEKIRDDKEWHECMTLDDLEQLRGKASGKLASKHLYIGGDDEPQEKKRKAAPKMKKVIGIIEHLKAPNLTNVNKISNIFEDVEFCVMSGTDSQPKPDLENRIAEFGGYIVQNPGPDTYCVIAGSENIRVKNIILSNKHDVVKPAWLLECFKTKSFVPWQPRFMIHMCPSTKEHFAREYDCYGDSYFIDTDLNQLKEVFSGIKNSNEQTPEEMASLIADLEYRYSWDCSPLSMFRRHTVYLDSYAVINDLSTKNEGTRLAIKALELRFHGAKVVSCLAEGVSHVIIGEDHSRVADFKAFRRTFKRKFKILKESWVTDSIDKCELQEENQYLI
human DNA ligase IV, sequence (Q13426 whole entry partner): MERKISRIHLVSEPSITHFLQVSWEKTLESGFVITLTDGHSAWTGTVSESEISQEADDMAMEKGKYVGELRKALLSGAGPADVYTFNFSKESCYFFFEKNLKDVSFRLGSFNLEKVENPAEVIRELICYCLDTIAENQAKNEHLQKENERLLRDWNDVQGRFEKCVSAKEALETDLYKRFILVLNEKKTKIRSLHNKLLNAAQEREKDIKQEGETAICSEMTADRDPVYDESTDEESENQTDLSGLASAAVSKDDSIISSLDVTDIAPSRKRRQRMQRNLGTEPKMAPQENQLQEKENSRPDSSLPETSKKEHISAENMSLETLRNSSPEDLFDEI

SMILES	inhibition at 100 µM
Cc1oc(C(=O)O)cc1CSCc1cc(C(=O)O)c(C)o1 [Compound 197]	57%
O=C(O)CSc1cc(Cl)c2nonc2c1[N+](=O)[O-] [Compound 64]	52%
Cc1c(Br)cc(NCC(=O)N/N=C\c2cc([N+](=O)[O-])ccc2O)cc1Br [Compound 67]	< 20%

Same assay, conditions: 100 μM; read-out: In vitro % inhib hLigIV 100

SMILES	inhibition at 100 µM
CCCCC(=O)c1ccc(O)cc1O [Compound 213]	0%
Cc1oc(C(=O)O)cc1CSCc1cc(C(=O)O)c(C)o1 [Compound 197]	57 ± 3%
O=C(O)CSc1cc(Cl)c2nonc2c1[N+](=O)[O-] [Compound 64]	52 ± 1%
C/C(O)=C1/C(=O)N(c2nc3ccccc3s2)N=C1c1ccccc1 [Compound 43]	0%
Cc1c(Br)cc(NCC(=O)N/N=C\c2cc([N+](=O)[O-])ccc2O)cc1Br [Compound 67]	0%

Same assay, conditions: 100 uM; Ø not defined (0 in Table 5A)

SMILES	% activity Inhibition hLigIV 100 uM
CCCCC(=O)c1ccc(O)cc1O [Compound 213]	Ø
C/C(O)=C1/C(=O)N(c2nc3ccccc3s2)N=C1c1ccccc1 [Compound 43]	Ø
Cc1c(Br)cc(NCC(=O)N/N=C\c2cc([N+](=O)[O-])ccc2O)cc1Br [Compound 67]	Ø

Same assay, conditions: 100 uM; Ø not defined (0 in Table 5A); read-out: % activity Inhibition hLigIV 100 uM

SMILES	inhibition at 100 µM
Cc1oc(C(=O)O)cc1CSCc1cc(C(=O)O)c(C)o1 [Compound 197]	> 60%
O=C(O)CSc1cc(Cl)c2nonc2c1[N+](=O)[O-] [Compound 64]	51.9 ± 1.2%

Same assay, conditions: in vitro screen

SMILES	inhibition of human DNA ligase IV, in words
Cc1oc(C(=O)O)cc1CSCc1cc(C(=O)O)c(C)o1 [Compound 197]	inhibit all three human DNA ligases
O=C(O)CSc1cc(Cl)c2nonc2c1[N+](=O)[O-] [Compound 64]	inhibit all three human DNA ligases
Cc1c(Br)cc(NCC(=O)N/N=C\c2cc([N+](=O)[O-])ccc2O)cc1Br [Compound 67]	do not inhibit DNA ligase IV

Same assay, conditions: read-out: % of inhibition @ 100 μM (Helen's data) hLigIV

SMILES	inhibition at 100 µM
O=C1Nc2ccccc2Oc2cc([N+](=O)[O-])cc([N+](=O)[O-])c21 [Compound 180]	< 20%
